Test results taken from ChEMBL document CHEMBL4819002, “Design, synthesis, evaluation, and SAR of 4-phenylindoline derivatives, a novel class of small-molecule inhibitors of the programmed cell death-1/ programmed cell death-ligand 1 (PD-1/PD-L1) interaction” (Eur J Med Chem, 2021).
Activity calls are given as the source filed them. The rule behind the calls is not given here.

Legend:
[1] = target: T1, Programmed cell death protein 1/Programmed cell death 1 ligand 1 (Homo sapiens, UniProt Q9NZQ7); test: Inhibition of PD1 (unknown origin)/PDL1 (unknown origin) protein-protein interaction by HTRF assay; type: protein-complex assay
T1 sequence (Q15116 whole entry): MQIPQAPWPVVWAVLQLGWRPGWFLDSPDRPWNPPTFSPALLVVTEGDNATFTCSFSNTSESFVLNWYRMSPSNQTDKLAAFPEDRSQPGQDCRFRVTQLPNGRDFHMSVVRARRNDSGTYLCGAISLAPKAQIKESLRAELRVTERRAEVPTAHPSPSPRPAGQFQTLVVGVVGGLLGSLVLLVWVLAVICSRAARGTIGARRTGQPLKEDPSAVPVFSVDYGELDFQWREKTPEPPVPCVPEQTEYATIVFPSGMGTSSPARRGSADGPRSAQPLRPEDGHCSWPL
T1 sequence (Q9NZQ7 whole entry): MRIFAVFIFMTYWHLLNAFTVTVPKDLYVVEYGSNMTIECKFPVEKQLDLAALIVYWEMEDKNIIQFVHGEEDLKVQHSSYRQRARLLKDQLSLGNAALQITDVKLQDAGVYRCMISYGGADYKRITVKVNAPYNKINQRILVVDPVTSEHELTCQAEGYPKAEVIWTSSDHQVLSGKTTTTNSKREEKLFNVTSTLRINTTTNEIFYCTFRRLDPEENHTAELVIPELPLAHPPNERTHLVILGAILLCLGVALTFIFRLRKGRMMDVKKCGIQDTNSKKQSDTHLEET

[2] = Cytotoxicity against CHO cells expressing PD-Ll /TCR cocultured with human Jurkat cells expressing PD-1 measured after 24 hrs by Cell Titer-Glo based luminescent cell viability assay; type: functional
[3] = target: T1, Programmed cell death protein 1/Programmed cell death 1 ligand 1; test: Inhibition of PD-1/PD-L1 interaction in CHO cells expressing PD-Ll/TCR cocultured with human Jurkat cells expressing PD-1 assessed as activation of effector Jurkat T cells incubated for 6 hrs by luciferase reporter gene assay; type: cell-based
[4] = target: T2, Programmed cell death protein 1/Programmed cell death 1 ligand 1 (Homo sapiens) (UniProt Q15116+Q9NZQ7); test: Inhibition of PD-1/PD-L1 interaction in CHO cells expressing PD-Ll/TCR cocultured with human Jurkat cells expressing PD-1 assessed as maximum relative luminescence intensity value at > 3.3 uM incubated for 6 hrs by luciferase reporter gene assay; type: cell-based; settings: dose microM >3.3, time 6.0 hrs
[5] = target: T2, Programmed cell death protein 1/Programmed cell death 1 ligand 1 (Homo sapiens); test: Inhibition of PD-1/PD-L1 interaction in CHO cells expressing PD-Ll/TCR cocultured with human Jurkat cells expressing PD-1 assessed as maximum relative luminescence intensity value incubated for 6 hrs by luciferase reporter gene assay; type: cell-based
[6] = target: T2, Programmed cell death protein 1/Programmed cell death 1 ligand 1 (Homo sapiens); test: Inhibition of PD-1/PD-L1 interaction in CHO cells expressing PD-Ll/TCR cocultured with human Jurkat cells expressing PD-1 assessed as maximum relative luminescence intensity value upto 10 uM incubated for 6 hrs by luciferase reporter gene assay; type: cell-based; settings: dose microM <=10, time 6.0 hrs

Structure (SMILES) | IC50 [1] [nM] | also measured
COC(=O)[C@H](CO)NCc1cc(Cl)c(OCc2cccc(-c3cccc4c3CCN4CCCN3CCC(O)CC3)c2C)cc1OCc1cncc(C#N)c1 | 41 | –
CC(=O)NCCNCc1cc(Cl)c(OCc2cccc(-c3cccc4c3CCN4CCCN3CCCC3)c2C)cc1OCc1cccc(C#N)c1 | 77 | –
CC(=O)NCCNCc1cc(Cl)c(OCc2cccc(-c3cccc4c3CCN4CCCn3cccc3)c2C)cc1OCc1cccc(C#N)c1 | 2470 | –
CC(=O)NCCNCc1cc(Cl)c(OCc2cccc(-c3cccc4c3CCN4CCCN3CCC(F)CC3)c2C)cc1OCc1cccc(C#N)c1 | 878 | –
CC(=O)NCCNCc1cc(Cl)c(OCc2cccc(-c3ccc4c(c3)OCCO4)c2C)cc1OCc1cccc(C#N)c1 | 40 | GI50 [2]: 6300 nM; EC50 [3]: > 3300 nM; Activity [4]: inactive
CC(=O)NCCNCc1cc(Cl)c(OCc2cccc(-c3cccc4c3CCN4CCCN3CCC(F)C3)c2C)cc1OCc1cccc(C#N)c1 (stereo unspecified) | 202 | –
CC(=O)NCCNCc1cc(Cl)c(OCc2cccc(-c3cccc4c3CCN4CCCN3CCC3)c2C)cc1OCc1cccc(C#N)c1 | 98 | –
CC(=O)NCCNCc1cc(Cl)c(OCc2cccc(-c3cccc4c3CCN4C)c2C)cc1OCc1cccc(C#N)c1 | 878 | –
CC(=O)NCCNCc1cc(Cl)c(OCc2cccc(-c3cccc4c3CCN4CCCN3CCC(O)CC3)c2C)cc1OCc1cncc(C#N)c1 | 17 | GI50 [2]: 16900 nM; Activity [5]: Dose-Dependent Effect; EC50 [3]: 430 nM; RLU [6]: 1910
CC(=O)NCCNCc1cc(Cl)c(OCc2cccc(-c3cccc4c3CCN4CCCN3CCC(O)CC3)c2C)cc1OCc1cccnc1 | 79 | –
CC(=O)NCCNCc1cc(Cl)c(OCc2cccc(-c3cccc4c3CCN4CCCN3CCOCC3)c2C)cc1OCc1cccc(C#N)c1 | 185 | –
COCCCN1CCc2c(-c3cccc(COc4cc(OCc5cccc(C#N)c5)c(CNCCNC(C)=O)cc4Cl)c3C)cccc21 | 905 | –
CC(=O)NCCNCc1cc(Cl)c(OCc2cccc(-c3cccc4c3CCN4CCCN3CCC(O)CC3)c2C)cc1OCc1ccccc1 | 446 | –
CCN(CC)CCCN1CCc2c(-c3cccc(COc4cc(OCc5cccc(C#N)c5)c(CNCCNC(C)=O)cc4Cl)c3C)cccc21 | 114 | –
CC(=O)NCCNCc1cc(Cl)c(OCc2cccc(-c3cccc4c3CCN4CCCN3CCC(O)CC3)c2C)cc1OCc1cccc(C#N)c1 | 58 | –
CC(=O)NCCNCc1cc(Cl)c(OCc2cccc(-c3cccc4c3CCN4CCCN3CCCCC3)c2C)cc1OCc1cccc(C#N)c1 | 197 | –
CC(=O)NCCNCc1cc(Cl)c(OCc2cccc(-c3cccc4c3CCN4CCCN3CCC(O)C3)c2C)cc1OCc1cccc(C#N)c1 (stereo unspecified) | 63 | –
CC(=O)NCCNCc1cc(Cl)c(OCc2cccc(-c3cccc4c3CCN4CCCN3CCC(O)CC3)c2C)cc1OCC1CCCCC1 | 1130 | –
Cc1c(COc2cc(OCc3cncc(C#N)c3)c(CNC(CO)CO)cc2Cl)cccc1-c1cccc2c1CCN2CCCN1CCC(O)CC1 | 38 | –
Cc1c(COc2cc(OCc3cncc(C#N)c3)c(CNCCO)cc2Cl)cccc1-c1cccc2c1CCN2CCCN1CCC(O)CC1 | 31 | –
CC(=O)NCCNCc1cc(Cl)c(OCc2cccc(-c3cccc4c3CCN4CCN3CCC(O)CC3)c2C)cc1OCc1cccc(C#N)c1 | 322 | –
CCCN1CCc2c(-c3cccc(COc4cc(OCc5cccc(C#N)c5)c(CNCCNC(C)=O)cc4Cl)c3C)cccc21 | 1730 | –
Cc1c(COc2cc(OCc3cncc(C#N)c3)c(CN[C@@H](CO)C(=O)O)cc2Cl)cccc1-c1cccc2c1CCN2CCCN1CCC(O)CC1 | 12 | GI50 [2]: > 20000 nM; Activity [5]: Dose-Dependent Effect; EC50 [3]: 2900 nM; RLU [6]: 1710
CCN1CCc2c(-c3cccc(COc4cc(OCc5cccc(C#N)c5)c(CNCCNC(C)=O)cc4Cl)c3C)cccc21 | 743 | –
CC(=O)NCCNCc1cc(Cl)c(OCc2cccc(-c3cccc4c3CCN4)c2C)cc1OCc1cccc(C#N)c1 | 1360 | –
